From patent US20080090734A1, “DRUG SCREENING AND TARGET IDENTIFICATION USING SPR IMAGING OF TARGET PROTEIN ARRAYS” (The Trustees of California State University, priority 2006, published 2008)

Tested on: A. baumannii clinical isolate LAC 17
Assay: Antibiotic susceptibility profile
Format: cell-based, Acinetobacter baumannii
Parameters: key: Resistance; Intermediate; Susceptible
Settings: not given
Text: (§1) We obtained over thirty clinical isolates of A. baumannii from nosocomial infections in New York City and Los Angeles. […] Only antibiotics with breakpoints for A. baumannii were used. […] Isolates LA 01 to 20 were acquired from Los Angels County while NY-A to NY-H were obtained from New York City.
(§2) Antibiotic susceptibility profiles of clinical isolates of A. baumannii and reference strains. R, I, and S denote Resistance, Intermediate and Susceptible, respectively. Genetic Profiling of Clinical Isolates of A. baumannii

Row | SMILES | Antibiotic susceptibility
1 | CN(C)c1ccc(O)c2c1C[C@H]1C[C@H]3[C@H](N(C)C)C(O)=C(C(N)=O)C(=O)[C@@]3(O)C(O)=C1C2=O [MIN, Minocycline] | S

Tested on: A. baumannii clinical isolate LAC 05
Assay: Antibiotic susceptibility profile
Format: cell-based, Acinetobacter baumannii
Parameters: key: Resistance; Intermediate; Susceptible
Settings: not given
Text: as §1, §2

Row | SMILES | Antibiotic susceptibility
2 | CN(C)c1ccc(O)c2c1C[C@H]1C[C@H]3[C@H](N(C)C)C(O)=C(C(N)=O)C(=O)[C@@]3(O)C(O)=C1C2=O [MIN, Minocycline] | S

Tested on: A. baumannii reference strain 19606
Assay: Antibiotic susceptibility profile
Format: cell-based, Acinetobacter baumannii
Parameters: key: Resistance; Intermediate; Susceptible
Settings: strain 19606 (ATCC)
Text: as §1, §2

Row | SMILES | Antibiotic susceptibility
3 | CN(C)c1ccc(O)c2c1C[C@H]1C[C@H]3[C@H](N(C)C)C(O)=C(C(N)=O)C(=O)[C@@]3(O)C(O)=C1C2=O [MIN, Minocycline] | S

Tested on: A. baumannii clinical isolate LAC 13
Assay: Antibiotic susceptibility profile
Format: cell-based, Acinetobacter baumannii
Parameters: key: Resistance; Intermediate; Susceptible
Settings: not given
Text: as §1, §2

Row | SMILES | Antibiotic susceptibility
4 | CN(C)c1ccc(O)c2c1C[C@H]1C[C@H]3[C@H](N(C)C)C(O)=C(C(N)=O)C(=O)[C@@]3(O)C(O)=C1C2=O [MIN, Minocycline] | R

Tested on: A. baumannii clinical isolate LAC 11
Assay: Antibiotic susceptibility profile
Format: cell-based, Acinetobacter baumannii
Parameters: key: Resistance; Intermediate; Susceptible
Settings: not given
Text: as §1, §2

Row | SMILES | Antibiotic susceptibility
5 | CN(C)c1ccc(O)c2c1C[C@H]1C[C@H]3[C@H](N(C)C)C(O)=C(C(N)=O)C(=O)[C@@]3(O)C(O)=C1C2=O [MIN, Minocycline] | R

Tested on: A. baumannii reference strain AYE
Assay: Antibiotic susceptibility profile
Format: cell-based, Acinetobacter baumannii
Parameters: key: Resistance; Intermediate; Susceptible
Settings: not given
Text: as §1, §2

Row | SMILES | Antibiotic susceptibility
6 | CN(C)c1ccc(O)c2c1C[C@H]1C[C@H]3[C@H](N(C)C)C(O)=C(C(N)=O)C(=O)[C@@]3(O)C(O)=C1C2=O [MIN, Minocycline] | S

Tested on: A. baumannii clinical isolate NY A
Assay: Antibiotic susceptibility profile
Format: cell-based, Acinetobacter baumannii
Parameters: key: Resistance; Intermediate; Susceptible
Settings: not given
Text: as §1, §2

Row | SMILES | Antibiotic susceptibility
7 | CN(C)c1ccc(O)c2c1C[C@H]1C[C@H]3[C@H](N(C)C)C(O)=C(C(N)=O)C(=O)[C@@]3(O)C(O)=C1C2=O [MIN, Minocycline] | S

Tested on: A. baumannii clinical isolate LAC 19
Assay: Antibiotic susceptibility profile
Format: cell-based, Acinetobacter baumannii
Parameters: key: Resistance; Intermediate; Susceptible
Settings: not given
Text: as §1, §2

Row | SMILES | Antibiotic susceptibility
8 | CN(C)c1ccc(O)c2c1C[C@H]1C[C@H]3[C@H](N(C)C)C(O)=C(C(N)=O)C(=O)[C@@]3(O)C(O)=C1C2=O [MIN, Minocycline] | S

Tested on: A. baumannii clinical isolate LAC 18
Assay: Antibiotic susceptibility profile
Format: cell-based, Acinetobacter baumannii
Parameters: key: Resistance; Intermediate; Susceptible
Settings: not given
Text: as §1, §2

Row | SMILES | Antibiotic susceptibility
9 | CN(C)c1ccc(O)c2c1C[C@H]1C[C@H]3[C@H](N(C)C)C(O)=C(C(N)=O)C(=O)[C@@]3(O)C(O)=C1C2=O [MIN, Minocycline] | S

Tested on: A. baumannii reference strain 17978
Assay: Antibiotic susceptibility profile
Format: cell-based, Acinetobacter baumannii
Parameters: key: Resistance; Intermediate; Susceptible
Settings: strain 17978 (ATCC)
Text: as §1, §2

Row | SMILES | Antibiotic susceptibility
10 | CN(C)c1ccc(O)c2c1C[C@H]1C[C@H]3[C@H](N(C)C)C(O)=C(C(N)=O)C(=O)[C@@]3(O)C(O)=C1C2=O [MIN, Minocycline] | S

Tested on: A. baumannii clinical isolate LAC 16
Assay: Antibiotic susceptibility profile
Format: cell-based, Acinetobacter baumannii
Parameters: key: Resistance; Intermediate; Susceptible
Settings: not given
Text: as §1, §2

Row | SMILES | Antibiotic susceptibility
11 | CN(C)c1ccc(O)c2c1C[C@H]1C[C@H]3[C@H](N(C)C)C(O)=C(C(N)=O)C(=O)[C@@]3(O)C(O)=C1C2=O [MIN, Minocycline] | S

Tested on: A. baumannii clinical isolate LAC 07
Assay: Antibiotic susceptibility profile
Format: cell-based, Acinetobacter baumannii
Parameters: key: Resistance; Intermediate; Susceptible
Settings: not given
Text: as §1, §2

Row | SMILES | Antibiotic susceptibility
12 | CN(C)c1ccc(O)c2c1C[C@H]1C[C@H]3[C@H](N(C)C)C(O)=C(C(N)=O)C(=O)[C@@]3(O)C(O)=C1C2=O [MIN, Minocycline] | S

Tested on: A. baumannii clinical isolate NY G
Assay: Antibiotic susceptibility profile
Format: cell-based, Acinetobacter baumannii
Parameters: key: Resistance; Intermediate; Susceptible
Settings: not given
Text: as §1, §2

Row | SMILES | Antibiotic susceptibility
13 | CN(C)c1ccc(O)c2c1C[C@H]1C[C@H]3[C@H](N(C)C)C(O)=C(C(N)=O)C(=O)[C@@]3(O)C(O)=C1C2=O [MIN, Minocycline] | S

Tested on: A. baumannii clinical isolate LAC 08
Assay: Antibiotic susceptibility profile
Format: cell-based, Acinetobacter baumannii
Parameters: key: Resistance; Intermediate; Susceptible
Settings: not given
Text: as §1, §2

Row | SMILES | Antibiotic susceptibility
14 | CN(C)c1ccc(O)c2c1C[C@H]1C[C@H]3[C@H](N(C)C)C(O)=C(C(N)=O)C(=O)[C@@]3(O)C(O)=C1C2=O [MIN, Minocycline] | S

Tested on: A. baumannii clinical isolate NY B
Assay: Antibiotic susceptibility profile
Format: cell-based, Acinetobacter baumannii
Parameters: key: Resistance; Intermediate; Susceptible
Settings: not given
Text: as §1, §2

Row | SMILES | Antibiotic susceptibility
15 | CN(C)c1ccc(O)c2c1C[C@H]1C[C@H]3[C@H](N(C)C)C(O)=C(C(N)=O)C(=O)[C@@]3(O)C(O)=C1C2=O [MIN, Minocycline] | R

Tested on: A. baumannii clinical isolate LAC 12
Assay: Antibiotic susceptibility profile
Format: cell-based, Acinetobacter baumannii
Parameters: key: Resistance; Intermediate; Susceptible
Settings: not given
Text: as §1, §2

Row | SMILES | Antibiotic susceptibility
16 | CN(C)c1ccc(O)c2c1C[C@H]1C[C@H]3[C@H](N(C)C)C(O)=C(C(N)=O)C(=O)[C@@]3(O)C(O)=C1C2=O [MIN, Minocycline] | R

Tested on: A. baumannii reference strain 15839
Assay: Antibiotic susceptibility profile
Format: cell-based, Acinetobacter baumannii
Parameters: key: Resistance; Intermediate; Susceptible
Settings: strain 15839 (ATCC)
Text: as §1, §2

Row | SMILES | Antibiotic susceptibility
17 | CN(C)c1ccc(O)c2c1C[C@H]1C[C@H]3[C@H](N(C)C)C(O)=C(C(N)=O)C(=O)[C@@]3(O)C(O)=C1C2=O [MIN, Minocycline] | S

Tested on: A. baumannii clinical isolate NY E
Assay: Antibiotic susceptibility profile
Format: cell-based, Acinetobacter baumannii
Parameters: key: Resistance; Intermediate; Susceptible
Settings: not given
Text: as §1, §2

Row | SMILES | Antibiotic susceptibility
18 | CN(C)c1ccc(O)c2c1C[C@H]1C[C@H]3[C@H](N(C)C)C(O)=C(C(N)=O)C(=O)[C@@]3(O)C(O)=C1C2=O [MIN, Minocycline] | I

Tested on: A. baumannii clinical isolate LAC 09
Assay: Antibiotic susceptibility profile
Format: cell-based, Acinetobacter baumannii
Parameters: key: Resistance; Intermediate; Susceptible
Settings: not given
Text: as §1, §2

Row | SMILES | Antibiotic susceptibility
19 | CN(C)c1ccc(O)c2c1C[C@H]1C[C@H]3[C@H](N(C)C)C(O)=C(C(N)=O)C(=O)[C@@]3(O)C(O)=C1C2=O [MIN, Minocycline] | S

Tested on: A. baumannii clinical isolate LAC 20
Assay: Antibiotic susceptibility profile
Format: cell-based, Acinetobacter baumannii
Parameters: key: Resistance; Intermediate; Susceptible
Settings: not given
Text: as §1, §2

Row | SMILES | Antibiotic susceptibility
20 | CN(C)c1ccc(O)c2c1C[C@H]1C[C@H]3[C@H](N(C)C)C(O)=C(C(N)=O)C(=O)[C@@]3(O)C(O)=C1C2=O [MIN, Minocycline] | S

Tested on: A. baumannii clinical isolate LAC 03
Assay: Antibiotic susceptibility profile
Format: cell-based, Acinetobacter baumannii
Parameters: key: Resistance; Intermediate; Susceptible
Settings: not given
Text: as §1, §2

Row | SMILES | Antibiotic susceptibility
21 | CN(C)c1ccc(O)c2c1C[C@H]1C[C@H]3[C@H](N(C)C)C(O)=C(C(N)=O)C(=O)[C@@]3(O)C(O)=C1C2=O [MIN, Minocycline] | S

Tested on: A. baumannii clinical isolate NY H
Assay: Antibiotic susceptibility profile
Format: cell-based, Acinetobacter baumannii
Parameters: key: Resistance; Intermediate; Susceptible
Settings: not given
Text: as §1, §2

Row | SMILES | Antibiotic susceptibility
22 | CN(C)c1ccc(O)c2c1C[C@H]1C[C@H]3[C@H](N(C)C)C(O)=C(C(N)=O)C(=O)[C@@]3(O)C(O)=C1C2=O [MIN, Minocycline] | S

Tested on: A. baumannii clinical isolate LAC 01
Assay: Antibiotic susceptibility profile
Format: cell-based, Acinetobacter baumannii
Parameters: key: Resistance; Intermediate; Susceptible
Settings: not given
Text: as §1, §2

Row | SMILES | Antibiotic susceptibility
23 | CN(C)c1ccc(O)c2c1C[C@H]1C[C@H]3[C@H](N(C)C)C(O)=C(C(N)=O)C(=O)[C@@]3(O)C(O)=C1C2=O [MIN, Minocycline] | S

Tested on: A. baumannii clinical isolate LAC 02
Assay: Antibiotic susceptibility profile
Format: cell-based, Acinetobacter baumannii
Parameters: key: Resistance; Intermediate; Susceptible
Settings: not given
Text: as §1, §2

Row | SMILES | Antibiotic susceptibility
24 | CN(C)c1ccc(O)c2c1C[C@H]1C[C@H]3[C@H](N(C)C)C(O)=C(C(N)=O)C(=O)[C@@]3(O)C(O)=C1C2=O [MIN, Minocycline] | S

Tested on: A. baumannii clinical isolate LAC 10
Assay: Antibiotic susceptibility profile
Format: cell-based, Acinetobacter baumannii
Parameters: key: Resistance; Intermediate; Susceptible
Settings: not given
Text: as §1, §2

Row | SMILES | Antibiotic susceptibility
25 | CN(C)c1ccc(O)c2c1C[C@H]1C[C@H]3[C@H](N(C)C)C(O)=C(C(N)=O)C(=O)[C@@]3(O)C(O)=C1C2=O [MIN, Minocycline] | S

Tested on: A. baumannii clinical isolate LAC 06
Assay: Antibiotic susceptibility profile
Format: cell-based, Acinetobacter baumannii
Parameters: key: Resistance; Intermediate; Susceptible
Settings: not given
Text: as §1, §2

Row | SMILES | Antibiotic susceptibility
26 | CN(C)c1ccc(O)c2c1C[C@H]1C[C@H]3[C@H](N(C)C)C(O)=C(C(N)=O)C(=O)[C@@]3(O)C(O)=C1C2=O [MIN, Minocycline] | S

Tested on: A. baumannii clinical isolate LAC 14
Assay: Antibiotic susceptibility profile
Format: cell-based, Acinetobacter baumannii
Parameters: key: Resistance; Intermediate; Susceptible
Settings: not given
Text: as §1, §2

Row | SMILES | Antibiotic susceptibility
27 | CN(C)c1ccc(O)c2c1C[C@H]1C[C@H]3[C@H](N(C)C)C(O)=C(C(N)=O)C(=O)[C@@]3(O)C(O)=C1C2=O [MIN, Minocycline] | R

Tested on: A. baumannii reference strain SDF
Assay: Antibiotic susceptibility profile
Format: cell-based, Acinetobacter baumannii
Parameters: key: Resistance; Intermediate; Susceptible
Settings: not given
Text: as §1, §2

Row | SMILES | Antibiotic susceptibility
28 | CN(C)c1ccc(O)c2c1C[C@H]1C[C@H]3[C@H](N(C)C)C(O)=C(C(N)=O)C(=O)[C@@]3(O)C(O)=C1C2=O [MIN, Minocycline] | S

Tested on: A. baumannii clinical isolate NY D
Assay: Antibiotic susceptibility profile
Format: cell-based, Acinetobacter baumannii
Parameters: key: Resistance; Intermediate; Susceptible
Settings: not given
Text: as §1, §2

Row | SMILES | Antibiotic susceptibility
29 | CN(C)c1ccc(O)c2c1C[C@H]1C[C@H]3[C@H](N(C)C)C(O)=C(C(N)=O)C(=O)[C@@]3(O)C(O)=C1C2=O [MIN, Minocycline] | S

Tested on: A. baumannii clinical isolate LAC 15
Assay: Antibiotic susceptibility profile
Format: cell-based, Acinetobacter baumannii
Parameters: key: Resistance; Intermediate; Susceptible
Settings: not given
Text: as §1, §2

Row | SMILES | Antibiotic susceptibility
30 | CN(C)c1ccc(O)c2c1C[C@H]1C[C@H]3[C@H](N(C)C)C(O)=C(C(N)=O)C(=O)[C@@]3(O)C(O)=C1C2=O [MIN, Minocycline] | S

Tested on: A. baumannii clinical isolate NY C
Assay: Antibiotic susceptibility profile
Format: cell-based, Acinetobacter baumannii
Parameters: key: Resistance; Intermediate; Susceptible
Settings: not given
Text: as §1, §2

Row | SMILES | Antibiotic susceptibility
31 | CN(C)c1ccc(O)c2c1C[C@H]1C[C@H]3[C@H](N(C)C)C(O)=C(C(N)=O)C(=O)[C@@]3(O)C(O)=C1C2=O [MIN, Minocycline] | S

Tested on: A. baumannii clinical isolate LAC 04
Assay: Antibiotic susceptibility profile
Format: cell-based, Acinetobacter baumannii
Parameters: key: Resistance; Intermediate; Susceptible
Settings: not given
Text: as §1, §2

Row | SMILES | Antibiotic susceptibility
32 | CN(C)c1ccc(O)c2c1C[C@H]1C[C@H]3[C@H](N(C)C)C(O)=C(C(N)=O)C(=O)[C@@]3(O)C(O)=C1C2=O [MIN, Minocycline] | S
